SMILES	melting point [°C]
CCOC(=O)[C@H](Cc1ccc(Nc2nccc3ccncc23)cc1)NC1=C(SC(C)C)C(=O)C12CCOCC2 [Example 10, Ethyl 2(S)-[(2-isopropylsulfanyl-3-oxo-7-oxa-spiro[3.5]non-1-en-1-yl)amino]-3-[4-([2,7]naphthyridin-1-ylamino)phenyl]propanoate]	221
CCOC(=O)[C@H](Cc1ccc(NC(=O)c2c(Cl)cncc2Cl)cc1)NC1=CC(=O)C12CCCCC2 [Example 1, Ethyl 2(S)-[(3-oxospiro[3.5]non-1-en-1-yl)amino]-3-{4-[(3,5-dichloroisonicotinoyl)amino]phenyl}propanoate]	194
CCOC(=O)[C@H](Cc1ccc(Nc2nccc3ccncc23)cc1)NC1=CC(=O)C12CCOCC2 [Example 9, Ethyl 3-[4-([2,7]naphthyridin-1-ylamino)phenyl]-2(S)-[(3-oxo-7-oxa-spiro[3.5]non-1-en-1-yl)amino]propanoate]	112
